Results from ChEMBL document CHEMBL4229350, “Antimicrobial activity and self-assembly behavior of antimicrobial peptide chensinin-1b with lipophilic alkyl tails” (Eur J Med Chem, 2018).
Values after ≈ are worked out from the molar mass of the structure shown. Active and inactive are the calls of the source. The rule behind the calls is not given here. Peptide text beside a SMILES is read from it. * marks the point of attachment. Lauroyl = CCCCCCCCCCCC(=O)*; Octanoyl = CCCCCCCC(=O)*

What was measured:
U-937 [1] = assay: Antiinflammatory activity in human U937 cells assessed as inhibition of LPS-induced TNF-alpha production after 24 hrs by ELISA; assay type: functional, cell-based
Lipid bilayer [2] = assay: Induction of membrane permeabilization in calcein loaded PG/CL large unilamellar vesicles assessed as calcein leakage at 6 uM after 15 mins by fluorescence assay relative to control
Staphylococcus aureus [3] = assay: Antimicrobial activity against Staphylococcus aureus AS 1.72 after 18 hrs by micro dilution method; assay type: functional; conditions: AS 1.72, 18 h
Lipid bilayer [4] = assay: Induction of membrane permeabilization in calcein loaded PG/CL/PE large unilamellar vesicles assessed as calcein leakage at 6 uM after 15 mins by fluorescence assay relative to control
Lactococcus lactis = assay: Antimicrobial activity against Streptococcus lactis AS 1.1690 after 18 hrs by micro dilution method; assay type: functional; conditions: AS 1.1690, 18 h
Enterococcus faecium = assay: Antimicrobial activity against Enterococcus faecium CGMCC 1.2334 after 18 hrs by micro dilution method; assay type: functional; conditions: CGMCC 1.2334, 18 h
Lipid bilayer [5] = assay: Induction of membrane permeabilization in calcein loaded LPS/PC/PG large unilamellar vesicles assessed as calcein leakage after 15 mins by fluorescence assay
Lipid bilayer [6] = assay: Induction of membrane permeabilization in calcein loaded LPS/PC/PG large unilamellar vesicles assessed as calcein leakage at 50 uM after 15 mins by fluorescence assay relative to control
Lipid bilayer [7] = assay: Induction of membrane permeabilization in calcein loaded PG/CL/PE large unilamellar vesicles assessed as calcein leakage at 3 uM after 10 mins by fluorescence assay relative to control
Pseudomonas aeruginosa = assay: Antimicrobial activity against Pseudomonas aeruginosa CGMCC 1.860 after 18 hrs by micro dilution method; assay type: functional; conditions: CGMCC 1.860, 18 h
Enterococcus faecalis = assay: Antimicrobial activity against Enterococcus faecalis CGMCC 1.595 after 18 hrs by micro dilution method; assay type: functional; conditions: CGMCC 1.595, 18 h
U-937 [8] = assay: Antiinflammatory activity in human U937 cells assessed as inhibition of LPS-induced TNF-alpha production at 6.25 uM after 24 hrs by ELISA relative to control; assay type: functional; conditions: U-937, 24 h
Lipopolysaccharide (LPS) [9] = assay: Binding affinity to Escherichia coli 0111:B4 LPS assessed as equilibrium association constant by ITC method
Lipid bilayer [10] = assay: Induction of membrane permeabilization in PG/CL/PE large unilamellar vesicles assessed as blue shift at compound to lipid ratio of 10 by Tryptophan fluorescence spectroscopy
U-937 [11] = assay: Antiinflammatory activity in human U937 cells assessed as inhibition of LPS-induced TNF-alpha production at 12.6 uM after 24 hrs by ELISA relative to control; assay type: functional; conditions: U-937, 24 h
[12] = Self-assembly property assessed as diameter of monodispersed micelles at 1 mg/ml at pH 7 readjusted from pH 2 by TEM analysis; assay type: physicochemical
Escherichia coli [13] = assay: Antimicrobial activity against Escherichia coli AS 1.349 assessed as induction of bacterial cytoplasmic membrane depolarization at 2 times MIC after 6 mins by diSC3-5 dye-based fluorescence assay; assay type: functional, organism-based
Lipid bilayer [14] = assay: Induction of membrane permeabilization in calcein loaded PC/cholesterol large unilamellar vesicles assessed as calcein leakage at 50 uM after 10 mins by fluorescence assay relative to control
[15] = Self-assembly property assessed as diameter of monodispersed micelles at 1 mg/ml at pH 7 by TEM analysis; assay type: physicochemical
Lipid bilayer [16] = assay: Induction of membrane permeabilization in PC/cholesterol large unilamellar vesicles assessed as blue shift by Tryptophan fluorescence spectroscopy
[17] = Hemolytic activity against human erythrocytes after 1 hr; assay type: ADME, cell-based, Erythrocyte
Escherichia coli [18] = assay: Antimicrobial activity against Escherichia coli AS 1.349 assessed as induction of outer membrane permeabilization by measuring NPN uptake by fluorescence assay; assay type: functional, organism-based
HeLa = assay: Cytotoxicity against human HeLa cells assessed as reduction in cell viability after 1 hr by MTT assay; assay type: functional, cell-based
Lipopolysaccharide (LPS) [19] = assay: Induction of LPS micelles disaggergation assessed as abundant particle size formation at 2 uM by DLS method
U-937 [20] = assay: Antiinflammatory activity in human U937 cells assessed as inhibition of LPS-induced IL-6 production at 12.6 uM after 24 hrs by ELISA relative to control; assay type: functional; conditions: U-937, 24 h
U-937 [21] = assay: Antiinflammatory activity in human U937 cells assessed as inhibition of LPS-induced IL-6 production after 24 hrs by ELISA; assay type: functional, cell-based
Lipid bilayer [22] = assay: Induction of membrane permeabilization in PG/CL large unilamellar vesicles assessed as blue shift at compound to lipid ratio of 60 by Tryptophan fluorescence spectroscopy
[23] = Cytotoxicity against human U937 cells assessed as cell viability at 3.13 to 12.6 uM after 1 hr by MTT assay relative to control; assay type: cell-based, U-937; conditions: read-out: Activity
MCF7 = assay: Cytotoxicity against human MCF7 cells assessed as reduction in cell viability after 1 hr by MTT assay; assay type: functional, cell-based; conditions: MCF7, 1 h
Lipid bilayer [24] = assay: Induction of membrane permeabilization in calcein loaded PG/CL large unilamellar vesicles assessed as calcein leakage at 3 uM after 10 mins by fluorescence assay relative to control
Escherichia coli [25] = assay: Antimicrobial activity against Escherichia coli AS 1.349 after 18 hrs by micro dilution method; assay type: functional; conditions: AS 1.349, 18 h
Lipopolysaccharide (LPS) [26] = assay: Binding affinity to Escherichia coli 0111:B4 LPS by ITC method
A-375 = assay: Cytotoxicity against human A375 cells assessed as reduction in cell viability after 1 hr by MTT assay; assay type: functional, cell-based; conditions: A-375, 1 h
Staphylococcus aureus [27] = assay: Antimicrobial activity against Staphylococcus aureus AS 1.72 assessed as induction of outer membrane permeabilization by measuring NPN uptake by fluorescence assay; assay type: functional, organism-based
U-937 [28] = assay: Antiinflammatory activity in human U937 cells assessed as inhibition of LPS-induced IL-6 production at 6.25 uM after 24 hrs by ELISA relative to control; assay type: functional; conditions: U-937, 24 h
Bacillus cereus = assay: Antimicrobial activity against Bacillus cereus AS 1.126 after 18 hrs by micro dilution method; assay type: functional; conditions: AS 1.126, 18 h
U-937 [29] = assay: Antiinflammatory activity in human U937 cells assessed as inhibition of LPS-induced IL-6 production at 3.13 uM after 24 hrs by ELISA relative to control; assay type: functional; conditions: U-937, 24 h
U-937 [30] = assay: Antiinflammatory activity in human U937 cells assessed as inhibition of LPS-induced TNF-alpha production at 3.13 uM after 24 hrs by ELISA relative to control; assay type: functional; conditions: U-937, 24 h
Staphylococcus aureus [31] = assay: Antimicrobial activity against Staphylococcus aureus AS 1.72 assessed as induction of bacterial cytoplasmic membrane depolarization at 2 times MIC after 5 mins by diSC3-5 dye-based fluorescence assay; assay type: functional, organism-based
Staphylococcus aureus [32] = assay: Antimicrobial activity against Staphylococcus aureus AS 1.72 assessed as induction of bacterial cytoplasmic membrane depolarization at 2 times MIC after 4 mins by diSC3-5 dye-based fluorescence assay; assay type: functional, organism-based
Escherichia coli [33] = assay: Antimicrobial activity against Escherichia coli AS 1.349 assessed as induction of bacterial cytoplasmic membrane depolarization at 2 times MIC after 5 mins by diSC3-5 dye-based fluorescence assay; assay type: functional, organism-based
Lipopolysaccharide (LPS) [34] = assay: Induction of LPS micelles disaggergation assessed as small particle distribution at 2 uM by DLS method

Compound: CCCCCCCCCCCC(=O)N[C@@H](CO)C(=O)N[C@@H](CCCCN)C(=O)N[C@H](C(=O)N[C@@H](Cc1c[nH]c2ccccc12)C(=O)N[C@@H](CCCNC(=N)N)C(=O)N[C@@H](Cc1cnc[nH]1)C(=O)N[C@@H](Cc1c[nH]c2ccccc12)C(=O)N[C@@H](CCCNC(=N)N)C(=O)N[C@@H](CCCNC(=N)N)C(=O)N[C@@H](Cc1ccccc1)C(=O)N[C@@H](Cc1c[nH]c2ccccc12)C(=O)N[C@@H](Cc1cnc[nH]1)C(=O)N[C@@H](CCCNC(=N)N)C(=O)N[C@@H](C)C(=O)N[C@@H](Cc1cnc[nH]1)C(=O)N[C@@H](CCCNC(=N)N)C(=O)N[C@@H](CCCCN)C(=O)N[C@@H](CC(C)C)C(=O)O)C(C)C (Lauroyl-SKVWRHWRRFWHRAHRKL-OH)
- inhibition (U-937 [1]): Dose-dependent effect
- Activity (Lipid bilayer [2]): 81%
- MIC (Staphylococcus aureus [3]): 3.13 µM (≈ 8.53 µg/mL)
- Activity (Lipid bilayer [4]): 54%
- MIC (Lactococcus lactis): 3.13 µM (≈ 8.53 µg/mL)
- MIC (Enterococcus faecium): 1.56 µM (≈ 4.25 µg/mL)
- Activity (Lipid bilayer [5]): Dose-dependent effect
- Activity (Lipid bilayer [6]): 58%
- Activity (Lipid bilayer [7]): 42%
- MIC (Pseudomonas aeruginosa): 1.56 µM (≈ 4.25 µg/mL)
- MIC (Enterococcus faecalis): 3.13 µM (≈ 8.53 µg/mL)
- inhibition at 6.25 µM (U-937 [8]): 27%
- Ka (Lipopolysaccharide (LPS) [9]): 136 mM⁻¹
- Activity (Lipid bilayer [10]): 16 nm
- inhibition at 12.6 µM (U-937 [11]): 31%
- Activity [12]: 108 nm
- Activity (Escherichia coli [13]): Active
- Activity (Lipid bilayer [14]): 20%
- Activity [15]: 66 nm
- Activity (Lipid bilayer [16]): inactive
- HC50 at 1 h [17]: > 500 µM
- Activity (Escherichia coli [18]): Dose-dependent effect
- IC50 (HeLa): 20.4 µM
- Activity (Lipopolysaccharide (LPS) [19]): 350 nm
- inhibition at 12.6 µM (U-937 [20]): 33%
- inhibition (U-937 [21]): Dose-dependent effect
- Activity (Lipid bilayer [22]): 20 nm
- viability at 1 h, up to 12.6 µM [23]: 80%
- IC50 (MCF7): 25.8 µM
- Activity (Lipid bilayer [24]): 64%
- MIC (Escherichia coli [25]): 6.25 µM (≈ 17 µg/mL)
- Kd (Lipopolysaccharide (LPS) [26]): 7.35 µM
- IC50 (A-375): 21.2 µM
- Activity (Staphylococcus aureus [27]): Dose-dependent effect
- inhibition at 6.25 µM (U-937 [28]): 29%
- MIC (Bacillus cereus): 3.13 µM (≈ 8.53 µg/mL)
- inhibition at 3.13 µM (U-937 [29]): 17%
- inhibition at 3.13 µM (U-937 [30]): 26%
- Activity (Staphylococcus aureus [31]): Active

Compound: CCCCCCCC(=O)N[C@@H](CO)C(=O)N[C@@H](CCCCN)C(=O)N[C@H](C(=O)N[C@@H](Cc1c[nH]c2ccccc12)C(=O)N[C@@H](CCCNC(=N)N)C(=O)N[C@@H](Cc1cnc[nH]1)C(=O)N[C@@H](Cc1c[nH]c2ccccc12)C(=O)N[C@@H](CCCNC(=N)N)C(=O)N[C@@H](CCCNC(=N)N)C(=O)N[C@@H](Cc1ccccc1)C(=O)N[C@@H](Cc1c[nH]c2ccccc12)C(=O)N[C@@H](Cc1cnc[nH]1)C(=O)N[C@@H](CCCNC(=N)N)C(=O)N[C@@H](C)C(=O)N[C@@H](Cc1cnc[nH]1)C(=O)N[C@@H](CCCNC(=N)N)C(=O)N[C@@H](CCCCN)C(=O)N[C@@H](CC(C)C)C(=O)O)C(C)C (Octanoyl-SKVWRHWRRFWHRAHRKL-OH)
- inhibition (U-937 [1]): Dose-dependent effect
- Activity (Lipid bilayer [2]): 95%
- MIC (Staphylococcus aureus [3]): 3.13 µM (≈ 8.35 µg/mL)
- Activity (Lipid bilayer [4]): 92%
- MIC (Lactococcus lactis): 1.56 µM (≈ 4.16 µg/mL)
- MIC (Enterococcus faecium): 1.56 µM (≈ 4.16 µg/mL)
- Activity (Lipid bilayer [5]): Dose-dependent effect
- Activity (Lipid bilayer [6]): 73%
- Activity (Lipid bilayer [7]): 66%
- MIC (Pseudomonas aeruginosa): 1.56 µM (≈ 4.16 µg/mL)
- MIC (Enterococcus faecalis): 1.56 µM (≈ 4.16 µg/mL)
- inhibition at 6.25 µM (U-937 [8]): 28%
- Ka (Lipopolysaccharide (LPS) [9]): 92.3 mM⁻¹
- Activity (Lipid bilayer [10]): 16 nm
- inhibition at 12.6 µM (U-937 [11]): 30%
- Activity [12]: 7 nm
- Activity (Lipid bilayer [14]): 20%
- Activity [15]: 80 nm
- Activity (Lipid bilayer [16]): inactive
- HC50 at 1 h [17]: > 500 µM
- Activity (Escherichia coli [18]): Dose-dependent effect
- IC50 (HeLa): 23.9 µM
- Activity (Staphylococcus aureus [32]): Active
- Activity (Lipopolysaccharide (LPS) [19]): 68 nm
- inhibition at 12.6 µM (U-937 [20]): 24%
- inhibition (U-937 [21]): Dose-dependent effect
- Activity (Lipid bilayer [22]): 24 nm
- viability at 1 h, up to 12.6 µM [23]: 80%
- IC50 (MCF7): 34.9 µM
- Activity (Lipid bilayer [24]): 88%
- Activity (Escherichia coli [33]): Active
- MIC (Escherichia coli [25]): 3.13 µM (≈ 8.35 µg/mL)
- Kd (Lipopolysaccharide (LPS) [26]): 10.8 µM
- IC50 (A-375): 51 µM
- Activity (Staphylococcus aureus [27]): Dose-dependent effect
- inhibition at 6.25 µM (U-937 [28]): 8%
- Activity (Lipopolysaccharide (LPS) [34]): 400 nm
- MIC (Bacillus cereus): 1.56 µM (≈ 4.16 µg/mL)
- inhibition at 3.13 µM (U-937 [29]): 7%
- inhibition at 3.13 µM (U-937 [30]): 24%
